In patent US20240116946A1 (Gilead Sciences, Inc., priority 2022, published 2024):
Read-outs that look alike come from different tables or passages of the source.

Experiments:
[1] = biological target: recombinant SARS-CoV-2 Main protease (Mpro) (Severe acute respiratory syndrome coronavirus 2 (2019-nCoV) (SARS-CoV-2), UniProt P0DTD1); experiment: Cov Mpro Biochemical IC50 Assay
SARS-CoV-2-NLuc = experiment: microbe, parasite or virus in culture; format: cell-based, SARS Coronavirus 2
[2] = recombinant SARS-CoV-2 Mpro 7.5 nM, fluorogenic peptide substrate 40 μM, read-out: MPro IC50
[3] = Severe acute respiratory syndrome coronavirus, 48 h; read-out: MPro EC50
[4] = recombinant SARS-CoV-2 Mpro, fluorogenic peptide substrate, read-out: MPro IC50
[5] = Severe acute respiratory syndrome coronavirus, 48 h, read-out: MPro EC50

Compound | IC50 [1, 2] | IC50 [1, 4] | EC50 (SARS-CoV-2-NLuc; [5]) | also measured
Cc1c(Cl)cncc1-n1c(=O)c2sc(-c3ccccc3Cl)cc2n(CCC#N)c1=O [Example 834] | 19.5 nM |  |  | EC50 (SARS-CoV-2-NLuc; [3]): 34.2 nM
O=c1[nH]c2sc(-c3ccccc3Cl)nc2c(=O)n1-c1cncc2ccccc12 [Example 78] |  | 404 nM | 9530 nM | 
COc1ccc(Cl)c(-c2cc(F)c3c(=O)n(-c4cncc5ccccc45)c(=O)[nH]c3c2)c1 [Example 221] |  | 65.8 nM |  | EC50 (SARS-CoV-2-NLuc; [3]): 50.6 nM
COc1cnc(Cl)c(-c2cc3c(s2)c(=O)n(-c2cncc(C(F)(F)F)c2)c(=O)n3CCC#N)c1 [Example 815] | 52.4 nM |  |  | EC50 (SARS-CoV-2-NLuc; [3]): 180 nM
COc1cc(-c2ccc3c(=O)n(-c4cncc5ccccc45)c(=O)[nH]c3c2)c(Cl)cc1Cl [Example 316] |  | 1070 nM | 322 nM | 
N#Cc1ccc(Cl)c(-c2ccc3c(=O)n(-c4cncc5ccccc45)c(=O)[nH]c3c2)c1 [Example 182] |  | 45.1 nM | 90 nM | 
NC(=O)c1cc(-c2cccc(Cl)c2-c2ccc3c(=O)n(-c4cncc5ccccc45)c(=O)[nH]c3c2)ccc1Cl [Example 264] |  | 11.1 nM | 30.2 nM | 
CNC(=O)c1cccc(-c2cccc(Cl)c2-c2ccc3c(=O)n(-c4cncc5ccccc45)c(=O)[nH]c3c2)c1 [Example 189] |  | 8.58 nM | 18.2 nM | 
COc1ccc(Cl)c(-c2cc3[nH]c(=O)n(-c4cncc5ccc(C(=O)N6CCOCC6)cc45)c(=O)c3s2)c1 [Example 566, 6-(2-chloro-5-methoxy-phenyl)-3-[6-(morpholine-4-carbonyl)-4-isoquinolyl]-1H-thieno[3,2-d]pyrimidine-2,4-dione] | 9.83 nM |  | 20.8 nM | 
N#Cc1cncc(-c2cccc(Cl)c2-c2cc3[nH]c(=O)n(-c4cncc5ccccc45)c(=O)c3s2)c1 [Example 673] | 4.08 nM |  | 3.71 nM | 
Cn1cc(-c2cccc(Cl)c2-c2cc3[nH]c(=O)n(-c4cncc5ccccc45)c(=O)c3s2)c(C2CC2)n1 [Example 527] | 3.22 nM |  | 1.45 nM | 
COc1ccc(Cl)c(-c2cc3[nH]c(=O)n(-c4cncc5cccc(F)c45)c(=O)c3s2)c1 [Example 445] | 5.71 nM |  | 22 nM | 
O=C1C[C@@H](Nc2ccc3cncc(-n4c(=O)[nH]c5cc(-c6ccccc6Cl)sc5c4=O)c3c2)CN1 [Example 405] | 12 nM |  | 2930 nM | 
N#CCCn1c(=O)n(-c2cncc3ccc(F)cc23)c(=O)c2sc(-c3ccc(F)cc3Cl)cc21 [Example 948] | 12.5 nM |  | 12.1 nM | 
NC(=O)c1cccc(-c2cccc(Cl)c2-c2ccc3c(=O)n(-c4cncc5ccccc45)c(=O)[nH]c3c2)c1 [Example 242] |  | 10.4 nM | 40.1 nM | 
O=c1[nH]c2cc(-c3ccccc3Cl)ccc2c(=O)n1-c1cncnc1 [Example 123] |  | > 100000 nM | 47000 nM | 
COc1cc(-c2cc3[nH]c(=O)n(-c4cncc5c4c(C)nn5C)c(=O)c3s2)c(Cl)cc1F [Example 752] | 6.96 nM |  | 8.41 nM | 
COc1ccc(Cl)c(-c2cc3[nH]c(=O)n(-c4cncc(CC(=O)N5CCOCC5)c4)c(=O)c3s2)c1 [Example 612] | 12.2 nM |  | > 1000 nM | 
COc1cc(-c2cc3[nH]c(=O)n(-c4cncc5ccccc45)c(=O)c3cc2F)c(Cl)cc1F (single isomer, unassigned) [Example 1006, 7-(2-chloro-4-fluoro-5-methoxy-phenyl)-6-fluoro-3-(4-isoquinolyl)-1H-quinazoline-2,4-dione] |  |  |  | IC50 ([1]; MPro IC50, recombinant SARS-CoV-2 Mpro 7.5 nM, fluorogenic peptide substrate 40 μM): 23.8 nM; EC50 (SARS-CoV-2-NLuc; read-out: MPro EC50): 9.33 nM
Cc1c(-c2ccccc2Cl)sc2[nH]c(=O)n(-c3cncc4ccccc34)c(=O)c12 [Example 75] |  | 854 nM | 9390 nM | 
COc1cccc(C)c1-c1ccc2c(=O)n(-c3cncc4ccccc34)c(=O)[nH]c2c1 [Example 89] |  | 860 nM | 881 nM | 
COc1cc(-c2cc3c(s2)c(=O)n(-c2cnc(F)c(C)c2)c(=O)n3CCC#N)c(Cl)cc1F [Example 891] | 9.38 nM |  | 29.6 nM | 
NC(=O)c1ccc(-c2cccc(Cl)c2-c2ccc3c(=O)n(-c4cncc5ccccc45)c(=O)[nH]c3c2)cc1 [Example 149, 4-[3-chloro-2-[3-(4-isoquinolyl)-2,4-dioxo-1H-quinazolin-7-yl]phenyl]benzamide] |  | 19.2 nM | 40.2 nM | 
N#CCCn1c(=O)n(-c2cccnc2)c(=O)c2sc(-c3ccccc3C#N)cc21 [Example 801] | 60.6 nM |  |  | EC50 (SARS-CoV-2-NLuc; [3]): 231 nM

Compound | IC50 [1, 2] | IC50 [1, 4] | EC50 (SARS-CoV-2-NLuc; [5]) | also measured
COc1cc(-c2cc3c(s2)c(=O)n(-c2cncc4cnc(C)n24)c(=O)n3CCC#N)c(Cl)cc1F [Example 980] | 7.64 nM |  | 10.4 nM | 
Cn1ncc2cncc(-n3c(=O)c4sc(-c5cc(F)ccc5C#N)cc4n(CCC#N)c3=O)c21 [Example 778] | 19 nM |  | 179 nM | 
CN1CCN(c2ccc3cncc(-n4c(=O)[nH]c5cc(-c6ccccc6Cl)sc5c4=O)c3c2)CC1 [Example 400] | 6.04 nM |  | 6.07 nM | 
O=c1[nH]c2cc(-c3c(Cl)cccc3-c3ccncc3F)ccc2c(=O)n1-c1cncc2ccccc12 [Example 332] |  | 15.3 nM | 39 nM | 
COc1cc(-c2cc3c(s2)c(=O)n(-c2cncc(OC4CC4)c2)c(=O)n3CCC#N)c(Cl)cc1F [Example 953] | 8.28 nM |  | 36.3 nM | 
COc1cnc(Cl)c(-c2cc3[nH]c(=O)n(-c4cncc(C5CC5)c4)c(=O)c3s2)c1 [Example 369] |  | 9.23 nM |  | EC50 (SARS-CoV-2-NLuc; [3]): 110 nM
COc1cc(-c2cc3[nH]c(=O)n(-c4cncc5ccccc45)c(=O)c3cc2OC)c(C#N)cc1F (single isomer, unassigned) [Example 572, 5-fluoro-2-[3-(4-isoquinolyl)-6-methoxy-2,4-dioxo-1H-quinazolin-7-yl]-4-methoxy-benzonitrile] | 2.9 nM |  |  | EC50 (SARS-CoV-2-NLuc; read-out: MPro EC50): 10.6 nM
Cc1nn(C)cc1-c1cccc(Cl)c1-c1cc2[nH]c(=O)n(-c3cncc(C4CC4)c3)c(=O)c2s1 [Example 617] | 7.26 nM |  | 19.5 nM | 
COc1ccc(Cl)c(-c2cc3[nH]c(=O)n(-c4cncc5ncsc45)c(=O)c3s2)c1 [Example 485] | 9.6 nM |  | 62.6 nM | 
O=c1[nH]c2cc(-c3ccccc3Cl)sc2c(=O)n1-c1cncc2c1CCCC2 [Example 108] |  | 9.23 nM | 71.4 nM | 
Cn1ccc2cccc(-c3ccc4c(=O)n(-c5cncc6ccccc56)c(=O)[nH]c4c3)c21 [Example 41] |  | 1480 nM |  | EC50 (SARS-CoV-2-NLuc; [3]): 3840 nM
Cc1ccccc1-c1ccc2c(=O)n(-c3cncc4ccccc34)c(=O)[nH]c2c1 [Example 36] |  | 388 nM | 619 nM | 
Cc1c(Cl)cncc1-n1c(=O)[nH]c2cc(-c3ccccc3Cl)ccc2c1=O [Example 140, 3-(5-chloro-4-methylpyridin-3-yl)-7-(2-chlorophenyl)quinazoline-2,4(1H,3H)-dione] |  | > 100000 nM | 429 nM | 
Cn1ncc2cncc(-n3c(=O)c4sc(-c5cc(F)c(F)cc5C#N)cc4n(CCC#N)c3=O)c21 [Example 794] | 31.5 nM |  | > 1000 nM | 
O=c1[nH]c2cc(-c3ccccc3Cl)sc2c(=O)n1-c1cncc2ccc(N3C[C@@H]4C[C@H]3CO4)cc12 [Example 393] | 9 nM |  | 12.2 nM | 
COc1ccc(Cl)c(-c2cc3[nH]c(=O)n(-c4cncc5cc(Cl)ccc45)c(=O)c3s2)c1 [Example 591] | 12.2 nM |  | 142 nM | 
COc1cnc(C#N)c(-c2cc3c(s2)c(=O)n(-c2cncc4cnn(C)c24)c(=O)n3CCC#N)c1 [Example 777] | 24.6 nM |  | 253 nM | 
COc1cc(-c2cc3c(s2)c(=O)n(-c2cncc4ccccc24)c(=O)n3CCC#N)c(Cl)cc1Cl [Example 832] | 7.71 nM |  | 7.16 nM | 
CN1C(=O)COc2cc(-c3cccc(Cl)c3-c3ccc4c(=O)n(-c5cncc6ccccc56)c(=O)[nH]c4c3)cnc21 [Example 195] |  | 8.82 nM | 9.06 nM | 
Cc1cc(F)ccc1-c1cc2[nH]c(=O)n(-c3cncc4ccccc34)c(=O)c2s1 [Example 177] |  | 89.7 nM | 137 nM | 
COc1ccc(Cl)c(-c2cc3[nH]c(=O)n(-c4cncc5ncsc45)c(=O)c3s2)c1 [Example 486] | 5.9 nM |  |  | EC50 (SARS-CoV-2-NLuc; read-out: MPro EC50): 29.4 nM
Cc1c(Cl)cncc1-n1c(=O)c2sc(-c3ccccc3C#N)cc2n(CCC#N)c1=O [Example 846] | 12.5 nM |  |  | EC50 (SARS-CoV-2-NLuc; [3]): 37.3 nM
COc1cc(-c2cc3c(s2)c(=O)n(-c2cncc4cccc(F)c24)c(=O)n3CCC#N)c(C#N)cc1F [Example 943] | 10.3 nM |  | 10 nM | 
